Two compounds from paper PMC3773576 (Cell Research, 2013) can be followed below.

Experiment [1] concerns the target T1, KCNQ2 potassium channel (Kv7.2) (Homo sapiens, UniProt O43526). Kind of experiment: whole-cell voltage clamp in CHO cells. The class given is cell-based.
Experiment [2] deals with T1, KCNQ2 potassium channel (Kv7.2). Kind of experiment: whole-cell voltage clamp in CHO cells, with VSD mutagenesis. The class given is cell-based.

Each structure is given as a SMILES string.

T1 sequence (O43526 whole entry): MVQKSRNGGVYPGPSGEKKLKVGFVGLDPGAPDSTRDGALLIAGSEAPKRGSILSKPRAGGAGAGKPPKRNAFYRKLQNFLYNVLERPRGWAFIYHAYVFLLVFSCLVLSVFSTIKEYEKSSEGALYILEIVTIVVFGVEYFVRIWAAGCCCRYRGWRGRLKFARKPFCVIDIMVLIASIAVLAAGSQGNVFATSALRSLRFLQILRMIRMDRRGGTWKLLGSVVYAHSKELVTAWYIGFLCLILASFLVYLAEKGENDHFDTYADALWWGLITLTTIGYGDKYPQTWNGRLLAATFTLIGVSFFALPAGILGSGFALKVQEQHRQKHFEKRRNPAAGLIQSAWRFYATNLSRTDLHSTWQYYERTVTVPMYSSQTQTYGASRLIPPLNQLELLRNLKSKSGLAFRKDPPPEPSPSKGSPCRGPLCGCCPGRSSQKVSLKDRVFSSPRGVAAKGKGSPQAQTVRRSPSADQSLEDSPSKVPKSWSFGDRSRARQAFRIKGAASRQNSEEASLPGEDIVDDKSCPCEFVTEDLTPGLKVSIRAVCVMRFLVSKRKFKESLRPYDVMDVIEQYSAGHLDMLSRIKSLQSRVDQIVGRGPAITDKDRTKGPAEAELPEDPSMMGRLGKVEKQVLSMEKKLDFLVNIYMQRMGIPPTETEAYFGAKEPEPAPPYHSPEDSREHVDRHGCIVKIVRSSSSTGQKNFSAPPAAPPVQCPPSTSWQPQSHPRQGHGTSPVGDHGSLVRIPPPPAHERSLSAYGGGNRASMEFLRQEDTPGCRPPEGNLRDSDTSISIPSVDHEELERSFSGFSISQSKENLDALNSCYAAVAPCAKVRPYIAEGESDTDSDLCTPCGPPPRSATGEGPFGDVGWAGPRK

Regarding `O=C(Nc1ccc(Cl)nc1)c1ccccc1` [YGP1, N-(6-Chloropyridin-3-yl)benzamide], the “whole-cell voltage clamp in CHO cells” value in experiment [1] was “Electrophysiological recording showed that YGP1 still exhibited potentiation activity on KCNQ2 as ztz240 did”.
The EC50 is the concentration that produces a half-maximal response. Low values mean greater potency, high ones weaker potency. Compound `O=C(Nc1ccc(Cl)nc1)c1ccc(F)cc1` [ztz240] yielded an EC50 in experiment [2] of 2.81 µM.
